The nature of series [1]: Human liver microsome (HLM) assay. It counts as in vitro ADME. Particulars: human liver microsomes, 5 μM test compound. As to the method:
Human Liver Microsome (HLM) Assay Compound metabolism in human liver microsomes was measured by LC-MS analytical assay procedures as follows. […] (3 tubes per test compound-triplicate). […] The samples were then transferred to separate polypropylene microcentrifuge tubes and centrifuged at 14000 g for 10 min. (Fisher Micro […] M0017580). For each replicate (#1-3) at each timepoint (0 and 2 h), an aliquot sample of each test compound was combined into a single HPLC vial insert (6 total samples) for LC-MS analysis, which is described below.
Background: Microsomes from liver hold many membrane-bound enzymes, among them those of drug oxidation.

Series [2] can be described thus: Determination of inhibitor concentration in mouse plasma after intraperitoneal and oral dosing. The series is classed as in vivo. The procedure, abridged: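 Mice dosed intraperitoneally or orally; blood taken by ocular bleed at 0.5, 1 and 4 h and by intracardiac puncture at 7 h. Plasma extracted with ethyl acetate after internal standard and NaOH addition, analysed by HPLC or LC-MS against a mouse-plasma standard curve.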

Series [3] concerns human umbilical vein endothelial cells (HUVEC). Kind of series: HUVEC proliferation assay (VEGF-stimulated, MTT). The series is classed as cell-based. Particulars: Homo sapiens, HUVEC; read-out: HUVEC IC50.
In series [4] the target is unphosphorylated VEGF-R2Δ50 (FLVK) (Homo sapiens, UniProt P35968, DEL940-989/E990V). Kind of series: VEGF-R2 coupled spectrophotometric assay, unphosphorylated VEGF-R2Δ50 (FLVK). Particulars: read-out: FLVK % inhibition.
[5] abbreviates: IP, 25 mg/kg, vehicle PEG400:H2O pH 2.3 60:40.
Setting [6] is: PO, 50 mg/kg, vehicle PEG400:H2O pH 2.3 60:40.
The mark [7] stands for this setting: IP, 25 mg/kg, vehicle PEG400:H2O pH 2.3 30:70.
[8] abbreviates: PO, 50 mg/kg, vehicle PEG400:H2O pH 2.3 30:70.

Where two headings read alike, the source gives them in different places.

In general, Cmax refers to the maximum level reached in the sampled fluid or tissue. In general, IC50 refers to the concentration that gives 50% inhibition. In general, inhibition refers to the percentage by which the read-out fell short of the control. By AUC(0-t) is commonly meant exposure summed from dosing to a finite time, without extrapolation to infinity. A high value points to high exposure.

Sequence of unphosphorylated VEGF-R2Δ50 (FLVK) (P35968 with tags, fused parts or gaps DEL940-989/E990V limits assumed): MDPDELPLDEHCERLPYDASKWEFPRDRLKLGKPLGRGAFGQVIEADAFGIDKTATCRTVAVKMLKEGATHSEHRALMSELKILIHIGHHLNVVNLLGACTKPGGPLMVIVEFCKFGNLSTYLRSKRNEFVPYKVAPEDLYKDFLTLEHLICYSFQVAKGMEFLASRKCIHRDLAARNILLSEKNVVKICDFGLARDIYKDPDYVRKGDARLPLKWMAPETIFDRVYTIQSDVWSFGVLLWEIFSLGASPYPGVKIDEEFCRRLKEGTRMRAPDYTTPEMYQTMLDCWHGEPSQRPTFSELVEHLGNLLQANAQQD

With `O=C(N[C@@H]1C[C@H]1c1ccccc1)c1ccccc1Sc1ccc2c(/C=C/c3ccccn3)n[nH]c2c1` (racemic) [Example 34], the “% remain (HLM, 2 h)” value in series [1] is reported as 28%.

In the case of `O=C(Nc1cccc(Oc2ccc3c(/C=C/c4ccccc4)n[nH]c3c2)c1)c1ccccc1` [Example 4(a), N-[3-(3-Styryl-1H-indazol-6-yloxy)-phenyl]-benzamide], in series [1], the “% remain (HLM, 2 h)” value turned out to be 35%.

Turning to `O=C(c1cccc(NC(=O)c2ccccn2)c1)c1ccc2c(/C=C/c3ccccc3)n[nH]c2c1` [Example 19(k), 6-[3-(Pyridin-2-ylcarboxamido)benzoyl]-3-E-styryl-1H-indazole], in series [1], the “% remain (HLM, 2 h)” value was found to be 58%. Besides, in series [2] (setting [5]), the AUClast was 428 ng·h/mL, the Cmax turned out to be 149 ng/mL and the “plasma half-life (T1/2)” value is 2.2 h. Also, in series [2] (setting [6]), the AUClast turned out to be 19 ng·h/mL, the Cmax is 8 ng/mL and the “plasma half-life (T1/2)” value was 2.2 h. For the same molecule, the concentration at 7 h in series [2] (female, IP, 25 mg/kg, vehicle PEG400:H2O pH 2.3 60:40, read-out: Cmin (7 hr conc.)) amounted to 15 ng/mL. In series [2] (female, PO, 50 mg/kg, vehicle PEG400:H2O pH 2.3 60:40, read-out: Cmin (7 hr conc.)), the concentration at 7 h was 4 ng/mL.

As to `CC(=O)Nc1cccc(Sc2ccc3c(/C=C/c4ccccc4)n[nH]c3c2)c1` [Example 20(a), 6-(3-Acetamido-phenylsulfanyl)-3-styryl-1H-indazole], in series [1], the “% remain (HLM, 2 h)” value stood at 52%.

Take `CNC(=O)c1ccccc1Sc1ccc2c(/C=C/c3ccccn3)n[nH]c2c1` [Example 33(a), 6-[2-(methylcarbamoyl)phenylsulfanyl]-3-E-[2-(pyridin-2-yl)ethenyl]indazole]: the “% remain (HLM, 2 h)” value in series [1] turned out to be 29%. Further, the results for the AUClast in series [2] (setting [7]) and in series [2] (setting [8]) were 13813 ng·h/mL and 19067 ng·h/mL, respectively. The Cmax in series [2] (setting [7]) was determined as 13794 ng/mL; in series [2] (setting [8]), 23562 ng/mL; in series [2] (female, PO, 25 mg/kg, vehicle 0.5% CMC, read-out: Cmax) it was 721 ng/mL; in series [2] (female, PO, 100 mg/kg, vehicle 0.5% CMC, read-out: Cmax), 3560 ng/mL.

`O=C(NCc1ccco1)c1ccccc1Sc1ccc2c(/C=C/c3ccccn3)n[nH]c2c1` [Example 35(bb), 6-[2-((fur-2-yl)Methylcarbamoyl)phenylsulfanyl]-3-E-[2-(pyridin-2-yl)ethenyl]-1H-indazole]: the “% remain (HLM, 2 h)” value in series [1] is 8%.

`O=C(NCc1ccccc1F)c1ccccc1Sc1ccc2c(/C=C/c3ccccn3)n[nH]c2c1` [Example 35(f)]: the “% remain (HLM, 2 h)” value in series [1] is given as 15%.

For the molecule `C=CCNC(=O)c1ccccc1Sc1ccc2c(/C=C/c3ccccn3)n[nH]c2c1` [Example 35(u), 6-[2-(Allylcarbamoyl)phenylsulfanyl]-3-E-[2-(pyridin-2-yl)ethenyl]-1H-indazole], in series [1], the “% remain (HLM, 2 h)” value was 27%.

As for `CCONC(=O)c1cccc(F)c1Sc1ccc2c(/C=C/c3ccccn3)n[nH]c2c1` [Example 37(a), 6-[6-Fluoro-2-(ethoxycarbamoyl)phenylsulfanyl]-3-E-[2-(pyridin-2-yl)ethenyl]-1H-indazole], the “% remain (HLM, 2 h)” value in series [1] stood at 21%.

In the case of `CNC(=O)c1ccccc1Nc1ccc2c(/C=C/c3ccccn3)n[nH]c2c1` [Example 39(a), 6-[2-(Methylcarbamoyl)phenylamino]-3-E-[2-(pyridin-2-yl)ethenyl]-1H-indazole], the IC50 in series [3] was 1.4 nM. Moreover, in series [4], the inhibition at 0.05 µM was 53%. For the same molecule, in series [2] (PO, 25 mg/kg, vehicle PEG400:H2O pH 2.3 30:70), the “plasma half-life (T1/2)” value came out at 1.4 h. Also, the AUC(0-t) in series [2] (female, PO, 25 mg/kg, vehicle PEG400:H2O pH 2.3 30:70) is above 14800 ng·h/mL. The Cmax in series [2] (female, PO, 25 mg/kg, vehicle PEG400:H2O pH 2.3 30:70, read-out: Cmax) is above 4000 ng/mL. Moreover, in series [2] (female, PO, 25 mg/kg, vehicle PEG400:H2O pH 2.3 30:70, read-out: Cmin (7 hr conc.)), the concentration at 7 h was 219 ng/mL.

Consider `O=C(Cc1cc(F)cc(F)c1)Nc1cccc(C(=O)c2ccc3c(/C=C/c4ccccn4)n[nH]c3c2)c1` [Example 41(f), 6-[3-(3,5-Difluorophenylacetamido)benzoyl]-3-E-[2-(pyridin-2-yl)ethenyl]-1H-indazole], for which the “% remain (HLM, 2 h)” value in series [1] is on record as 59%.
